Test system: PRISM DNA-barcoded human tumour cell lines
Assay: PRISM pooled cell viability assay;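 for Area under the curve (AUC): 8 threefold dilutions from 10 µM with 5 days of exposure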;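 for PRISM AUC: 8 threefold dilutions from 10 µM with 5 days of exposure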
Format: cell-based
Design: Area under the curve (AUC): scale not given here; AUC (PRISM viability) / AUC (PRISM): unit not given beside the values
Details: for AUC (PRISM): BRAF class I; for PRISM AUC: KRAS MUT; for AUC (PRISM viability): WT
Procedure: Cells were then lysed in TCL mRNA lysis buffer, and then PCR with reverse transcription was performed. Detection of the barcodes and univariate and multivariate analysis was then performed as previously described. Data analysis is described in the Supplementary Methods. Up-to-date code for our analysis is at the github link: https://github.com/cmap/dockerized_mts.
For every gene with non-silent mutations in at least four cell-lines, we compared the AUC values between cells with and without those mutations using a t-test. This analysis was carried out for: (i) the full dataset; (ii) excluding cell lines with non-silent KRAS mutations; and (iii) excluding cell lines that have either KRAS or NRAS non-silent mutations.

[1] = DND41_HAEMATOPOIETIC_AND_LYMPHOID_TISSUE

## CCn1c(-c2cc(N3CCN(C4CC4)CC3)cnc2[C@H](C)OC)c2c3cc(ccc31)-c1csc(n1)C[C@H](NC(=O)[C@H]1[C@@H]3COC[C@@H]31)C(=O)N1CCC[C@H](N1)C(=O)OCC(C)(C)C2 [RMC-7977]
42MGBA_CENTRAL_NERVOUS_SYSTEM
  Area under the curve (AUC): 0.8215
253JBV_URINARY_TRACT
  Area under the curve (AUC): 0.7547
639V_URINARY_TRACT
  Area under the curve (AUC): 0.5786
647V_URINARY_TRACT
  Area under the curve (AUC): 0.793
697_HAEMATOPOIETIC_AND_LYMPHOID_TISSUE
  Area under the curve (AUC): 0.7402
769P_KIDNEY
  Area under the curve (AUC): 0.9025
786O_KIDNEY
  Area under the curve (AUC): 0.9593
5637_URINARY_TRACT
  Area under the curve (AUC): 0.5198
8305C_THYROID
  Area under the curve (AUC): 0.8425
A101D_SKIN
  AUC (PRISM): 0.8318
A375_SKIN
  AUC (PRISM): 0.8721
A549_LUNG
  PRISM AUC: 0.4422
A1207_CENTRAL_NERVOUS_SYSTEM
  AUC (PRISM): 0.9848
A2058_SKIN
  AUC (PRISM): 0.6601
AGS_STOMACH
  PRISM AUC: 0.2114
ASPC1_PANCREAS
  PRISM AUC: 0.2372
CAL62_THYROID
  PRISM AUC: 0.7922
CALU1_LUNG
  PRISM AUC: 0.3345
CAOV3_OVARY
  Area under the curve (AUC): 0.8029
CAPAN2_PANCREAS
  Area under the curve (AUC): 0.3724
  PRISM AUC: 0.2599
CAS1_CENTRAL_NERVOUS_SYSTEM
  Area under the curve (AUC): 0.8726
CASKI_CERVIX
  Area under the curve (AUC): 0.7017
CBAGPN_BONE
  Area under the curve (AUC): 0.5843
CCFSTTG1_CENTRAL_NERVOUS_SYSTEM
  Area under the curve (AUC): 0.8445
CCK81_LARGE_INTESTINE
  Area under the curve (AUC): 0.8268
CCLP1_BILIARY_TRACT
  Area under the curve (AUC): 0.6816
CCSW1_BILIARY_TRACT
  Area under the curve (AUC): 0.6555
CFPAC1_PANCREAS
  Area under the curve (AUC): 0.5351
  PRISM AUC: 0.2506
CH157MN_CENTRAL_NERVOUS_SYSTEM
  Area under the curve (AUC): 0.6397
CHAGOK1_LUNG
  Area under the curve (AUC): 0.489
CHL1_SKIN
  Area under the curve (AUC): 0.6244
CHLA06ATRT_SOFT_TISSUE
  Area under the curve (AUC): 0.5593
CHLA10_BONE
  Area under the curve (AUC): 0.7982
CHLA15_AUTONOMIC_GANGLIA
  Area under the curve (AUC): 0.6039
CHLA57_BONE
  Area under the curve (AUC): 0.7007
CHLA200_CENTRAL_NERVOUS_SYSTEM
  Area under the curve (AUC): 0.6544
CJM_SKIN
  Area under the curve (AUC): 0.5835
CL11_LARGE_INTESTINE
  Area under the curve (AUC): 0.4982
CMLT1_HAEMATOPOIETIC_AND_LYMPHOID_TISSUE
  Area under the curve (AUC): 0.6333
COGAR359_SOFT_TISSUE
  Area under the curve (AUC): 0.7818
COGE352_BONE
  Area under the curve (AUC): 0.9516
COGN278_AUTONOMIC_GANGLIA
  Area under the curve (AUC): 0.4846
COLO320_LARGE_INTESTINE
  Area under the curve (AUC): 0.6681
COLO668_LUNG
  Area under the curve (AUC): 0.6484
  PRISM AUC: 0.815
COLO678_LARGE_INTESTINE
  Area under the curve (AUC): 0.7153
COLO679_SKIN
  Area under the curve (AUC): 0.858
COLO680N_OESOPHAGUS
  Area under the curve (AUC): 0.6858
COLO741_SKIN
  Area under the curve (AUC): 1
COLO783_SKIN
  Area under the curve (AUC): 0.8893
COLO792_SKIN
  Area under the curve (AUC): 0.7007
COLO800_SKIN
  Area under the curve (AUC): 0.7125
CORL23_LUNG
  Area under the curve (AUC): 0.5921
  PRISM AUC: 0.1909
CORL88_LUNG
  Area under the curve (AUC): 0.5624
CORL105_LUNG
  Area under the curve (AUC): 0.7085
CORL279_LUNG
  Area under the curve (AUC): 0.7248
COV318_OVARY
  Area under the curve (AUC): 0.8633
COV362_OVARY
  Area under the curve (AUC): 0.7849
COV434_OVARY
  Area under the curve (AUC): 0.99
COV644_OVARY
  Area under the curve (AUC): 0.7771
CW2_LARGE_INTESTINE
  Area under the curve (AUC): 0.99
CW9019_SOFT_TISSUE
  Area under the curve (AUC): 0.6651
DANG_PANCREAS
  Area under the curve (AUC): 0.3955
  PRISM AUC: 0.2087
DAOY_CENTRAL_NERVOUS_SYSTEM
  Area under the curve (AUC): 0.7146
DBTRG05MG_CENTRAL_NERVOUS_SYSTEM
  Area under the curve (AUC): 0.9233
DEL_HAEMATOPOIETIC_AND_LYMPHOID_TISSUE
  Area under the curve (AUC): 0.7782
DETROIT562_UPPER_AERODIGESTIVE_TRACT
  Area under the curve (AUC): 0.4955
DKMG_CENTRAL_NERVOUS_SYSTEM
  Area under the curve (AUC): 0.9357
DL_SOFT_TISSUE
  Area under the curve (AUC): 0.5482
DMS53_LUNG
  Area under the curve (AUC): 0.9195
DMS79_LUNG
  Area under the curve (AUC): 0.9708
DMS273_LUNG
  Area under the curve (AUC): 0.8299
[1]
  Area under the curve (AUC): 0.662
  PRISM AUC: 0.4904
DOHH2_HAEMATOPOIETIC_AND_LYMPHOID_TISSUE
  Area under the curve (AUC): 0.794
DOTC24510_CERVIX
  Area under the curve (AUC): 0.5479
DU145_PROSTATE
  Area under the curve (AUC): 0.7717
DU4475_BREAST
  Area under the curve (AUC): 0.7278
DV90_LUNG
  Area under the curve (AUC): 0.3742
  PRISM AUC: 0.1773
EB1_HAEMATOPOIETIC_AND_LYMPHOID_TISSUE
  Area under the curve (AUC): 0.7516
EBC1_LUNG
  Area under the curve (AUC): 0.4773
ECC2_BILIARY_TRACT
  Area under the curve (AUC): 0.751
ECC10_STOMACH
  Area under the curve (AUC): 0.6145
ECGI10_OESOPHAGUS
  Area under the curve (AUC): 0.5375
EFE184_ENDOMETRIUM
  Area under the curve (AUC): 0.7163
EFM19_BREAST
  Area under the curve (AUC): 0.9395
EFM192A_BREAST
  Area under the curve (AUC): 1
EFO21_OVARY
  Area under the curve (AUC): 0.6416
EFO27_OVARY
  Area under the curve (AUC): 0.6995
EGI1_BILIARY_TRACT
  Area under the curve (AUC): 0.5258
EKVX_LUNG
  Area under the curve (AUC): 0.7007
EM2_HAEMATOPOIETIC_AND_LYMPHOID_TISSUE
  Area under the curve (AUC): 0.5861
EMTOKA_ENDOMETRIUM
  Area under the curve (AUC): 0.6769
EN_ENDOMETRIUM
  Area under the curve (AUC): 0.882
ES2_OVARY
  Area under the curve (AUC): 0.9145
ESS1_ENDOMETRIUM
  Area under the curve (AUC): 0.5647
EW8_BONE
  Area under the curve (AUC): 0.6981
EWS502_BONE
  Area under the curve (AUC): 0.6483
FADU_UPPER_AERODIGESTIVE_TRACT
  Area under the curve (AUC): 0.6687
FLO1_OESOPHAGUS
  Area under the curve (AUC): 1
FTC133_THYROID
  Area under the curve (AUC): 0.5671
FTC238_THYROID
  Area under the curve (AUC): 0.9611
G292CLONEA141B1
  Area under the curve (AUC): 0.925
G292CLONEA141B1_BONE
  Area under the curve (AUC): 0.8311
G361_SKIN
  Area under the curve (AUC): 1
G401_SOFT_TISSUE
  Area under the curve (AUC): 0.9104
G402_SOFT_TISSUE
  Area under the curve (AUC): 0.9029
G415_BILIARY_TRACT
  Area under the curve (AUC): 0.596
GAMG_CENTRAL_NERVOUS_SYSTEM
  Area under the curve (AUC): 0.6539
GB1_CENTRAL_NERVOUS_SYSTEM
  Area under the curve (AUC): 1
GB2_BILIARY_TRACT
  Area under the curve (AUC): 0.5045
GP2D_LARGE_INTESTINE
  PRISM AUC: 0.4036
GSU_STOMACH
  PRISM AUC: 0.1903
HCC44_LUNG
  PRISM AUC: 0.3549
HCC56_LARGE_INTESTINE
  PRISM AUC: 0.1735
HCT15_LARGE_INTESTINE
  PRISM AUC: 0.6069
HCT116_LARGE_INTESTINE
  PRISM AUC: 0.4206
HEC1A_ENDOMETRIUM
  PRISM AUC: 0.5452
HEC1B_ENDOMETRIUM
  PRISM AUC: 0.557
HEYA8_OVARY
  PRISM AUC: 0.3651
HMC18_BREAST
  PRISM AUC: 0.1236
HPAC_PANCREAS
  PRISM AUC: 0.2345
HPAFII_PANCREAS
  PRISM AUC: 0.1832
HT29_LARGE_INTESTINE
  AUC (PRISM viability): 0.9401
HT55_LARGE_INTESTINE
  AUC (PRISM viability): 0.5483
HT144_SKIN
  AUC (PRISM viability): 0.8437
HT_HAEMATOPOIETIC_AND_LYMPHOID_TISSUE
  AUC (PRISM viability): 0.5864
HUCCT1_BILIARY_TRACT
  PRISM AUC: 0.2016
